*1 amine or outer side, *2 acyl side, *3 side chain or, on linkers, in order; H or OH if unused. Where a SMILES comes first, the peptide text is derived from it. [ ]: non-standard residue; d: D form. The star is where a group is joined. NH(4-phenylbutyl) = c1ccc(CCCCN*)cc1; X1 = C[C@H](N[*:1])C(=O)C(=O)[*:2]
Columns and labels:
recombinant human RHBDL4 [1] = target: T1, recombinant human RHBDL4 (Homo sapiens, UniProt Q8TEB9); test: Inhibition of RHBDL4 proteolysis of IQ6 (FRET-based in vitro assay); format: biochemical; conditions: IQ6 substrate; for inhibition of RHBDL4 proteolytic activity: increasing concentrations, 1 h pre-incubation, 2 h reaction, n = 3
T1 construct: The entire RHBDL4 and RHBDL4-S144A cDNAs were subcloned into the pcDNA3.1 vector; 6xHis (C, cleaved yes); made in house; host or cells: Freestyle 293-F cells (transient transfection, pcDNA3.1-HisA)
T1 sequence (Q8TEB9 1-315): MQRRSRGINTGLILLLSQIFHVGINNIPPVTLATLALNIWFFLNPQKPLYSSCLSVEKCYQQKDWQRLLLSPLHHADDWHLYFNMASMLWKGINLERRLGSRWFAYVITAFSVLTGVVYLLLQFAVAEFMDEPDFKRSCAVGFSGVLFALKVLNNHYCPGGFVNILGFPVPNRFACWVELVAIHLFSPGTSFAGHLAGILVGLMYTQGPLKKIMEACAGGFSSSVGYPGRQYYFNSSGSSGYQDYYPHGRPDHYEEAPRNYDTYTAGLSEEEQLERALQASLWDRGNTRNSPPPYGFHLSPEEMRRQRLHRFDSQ
From the text: (§1) B, schematic representation of the peptidyl-α-ketoamide scaffold with peptide sequence P5-P1 at the nonprime side and hydrophobic substituent (R) at the prime side. C, schematic representation of the peptidyl-α-ketoamide inhibitor, compound 1a/1b. D, representative inhibition curve derived from measuring rates of RHBDL4 proteolysis of the fluorescent substrate IQ6 with increasing concentrations of compound 1a. E, same as (D), except inhibition curve was derived from using increasing concentrations of compound 1b. […] Reactions were quenched with 1 keLaemmli buffer and loaded on 12% SDS-PAGE gel. Post-transfer membranes were visualized using a fluorescence Cy3 filter and by Western blotting using an α-His antibody. For (A, D, and E), all inhibitors were pre-incubated with RHBDL4 for 1 h and allowed to react with the IQ6 substrate for 2 h.
(§2) B, representative inhibition curve derived from measuring rates of RHBDL4 proteolysis of the fluorescent substrate IQ6 with increasing concentrations of compound 3. C, same as (B), except inhibition curve was derived from using increasing concentrations of compound 4. […] Reactions were quenched with 1 RLaemmli buffer and loaded on 12% SDS-PAGE gel. Post-transfer membranes were visualized using a fluorescence Cy3 filter and by Western blotting using an α-His antibody. E, saturation curve of RHBDL4 using fluorescent substrate, KSp207. For (B and C), all inhibitors were pre-incubated with RHBDL4 for 1 h and allowed to react with the IQ6 substrate for 2 h. […] I assigned them to the substrate KSp207, which is named on the x-axis and in the inset table.
(§3) The enzymatic assay was performed as previously described (Arutyunova et al., 2014, ([26])). […] The FRET-based cleavage assay was conducted in a fluorescence multiwell plate reader (SynergyMx, BioTek). Upon excitation at 320 nm, the emission intensity at 400 nm was recorded for 2 h at minimal intervals under shaking conditions and plotted using the GraphPad PRISM software. The initial velocities were defined as the slopes of the curve of the generated product as a function of time. The plots of the generated product against the corresponding substrate concentration were fitted with the Michaelis–Menten equation. Catalytic parameters were extrapolated using GraphPad PRISM. […] The samples were desalted using C18 tips (Rainin), eluted in 80% acetonitrile, and dried down in a vacuum centrifuge prior to mass spectrometry analysis.

[2] = tested on: WT RHBDL4 (recombinant, purified); test: TAMRA-FP competition labelling on recombinant RHBDL4; format: binding, human; conditions: in-gel Cy3 fluorescence, compared with inactive RHBDL4-S144A control
From the text: as §1, §2

recombinant human RHBDL4 [3] = target: T1, recombinant human RHBDL4; test: FRET-based cleavage assay with fluorescent (IQ / KSp207) substrates; format: biochemical; conditions: for kcat / pH of highest RHBDL4 protease activity / salt concentration range with satisfactory activity: triplicate; for kcat: average ± S.E.M.; for pH of highest RHBDL4 protease activity: pH range 5 to 10; for salt concentration range with satisfactory activity: salt tested 100 to 300 mM
Experimental: Figure 2 Kinetic characterization of recombinant human RHBDL4.A, schematic representation of the FRET-based cleavage assay using internally quenched (IQ) substrates. B, saturation curves of RHBDL4 using the fluorescent IQ substrates, IQ6, IQ41, and IQ46. C, pH dependence of the RHBDL4 protease activity using substrates IQ6, IQ41, and IQ46. D, salt concentration dependence of the RHBDL4 protease activity using substrates IQ6, IQ41, and IQ46. All the assays were performed in triplicate, and data points are represented by the average ± S.E.M. TEXT PRINTED IN THE PICTURE: (B) IQ 6: KM(μM) 10.73±2; Kcat(hr^-1) 7.33±0.6 | (B) IQ 41: KM(μM) 5.63±2; Kcat(hr^-1) 2.41±0.6 | (B) IQ 46: KM(μM) 7.19±1; Kcat(hr^-1) 3.62±0.8
(§4) The reaction setup in our FRET assay enabled the direct determination of Michaelis–Menten kinetic parameters Km and kcat for the cleavage of IQ6, IQ41, and IQ46 by RHBDL4. Our fluorescence reading data were converted to μM/h using the standard calibration curve for all three IQ substrates, and the correction factor for the inner filter effect was applied. We confirmed that purified RHBDL4 followed Michaelis–Menten kinetics with KmIQ6=10.73±2μΜ , KmIQ41=5.63±2μΜ , and KmIQ46=7.19±1μΜ and kcatIQ6=7.33±0.6h^−1 , kcatIQ41=2.41±0.6h^−1 , and kcatIQ46=3.62±0.08h^−1 (Figs. 2B and S2B).
Our FRET-based assay is a suitable platform for optimizing conditions that enhance RHBDL4 protease activity. To this end, we selected the optimal pH for RHBDL4 protease activity and performed FRET-based assays with IQ6, IQ41, and IQ46 at a pH range of 5 to 10. […] The optimal salt concentration for the RHBDL4 protease activity was also tested in the range of 100 to 300 mM (Fig. 2D). We conclude that with the IQ6, IQ41, and IQ46 substrates, RHBDL4 had satisfactory activity in a salt concentration range of 100 to 300 mM.
as §2, with “Figure 5 In vitro inhibition of RHBDL4 activity with TMED7-derived peptidyl α-ketoamides.A, schematic representation of the peptidyl-α-ketoamide inhibitor, compound 3 and 4. B,” for “B,”
as §3
All the calculations for Km, Vmax, and Kcat for RHBDL4 and its mutants were performed using GraphPad PRISM.

RHBDL4-S144A = test: FRET-based cleavage by inactive RHBDL4-S144A; format: biochemical, human; conditions: pH 8, 37 °C
From the text: as §4
Figure 3 Dependence of conserved rhomboid motifs on RHBDL4 protease activity.A, RHBDL4 representation highlighting TM1–6 (in green), the VBM- and UIM-binding motifs (in blue), the conserved rhomboid motifs (WR and Gx3G), and the serine-histidine catalytic dyad (in pink). The table indicates the RHBDL4 region, the conserved rhomboid motifs, and amino acid mutation. The RHBDL4 proteolytic activity. B, size-exclusion chromatography profile of RHBDL4-AR and RHBDL4-Ax3G, being eluted as a monomeric protein. C, coomassie staining and Western blotting using an α-His antibody of concentrated purified RHBDL4-AR and RHBDL4-Ax3G. D, activity profiles of the WT RHBDL4 and mutant RHBDL4-S144A, RHBDL4-AR, and RHBDL4-Ax3G proteins, as measured by cleavage of the fluorescent substrate IQ6. Assay was performed in triplicate (n = 3), and data points are represented by the average ± S.E.M. Statistically significant differences compared to WT RHBDL4 are indicated (pairwise Dunnett's test followed by Bonferroni's post hoc analysis; ∗p < 0.05, n.s., no significance).
The enzymatic assay was performed as previously described (Arutyunova et al., 2014, ([26])). […] The FRET-based cleavage assay was conducted in a fluorescence multiwell plate reader (SynergyMx, BioTek). Upon excitation at 320 nm, the emission intensity at 400 nm was recorded for 2 h at minimal intervals under shaking conditions and plotted using the GraphPad PRISM software. […]

[4] = target: T2, WT RHBDL4 (human rhomboid protease RHBDL4, recombinant) (human) (UniProt Q8TEB9)
T2 sequence: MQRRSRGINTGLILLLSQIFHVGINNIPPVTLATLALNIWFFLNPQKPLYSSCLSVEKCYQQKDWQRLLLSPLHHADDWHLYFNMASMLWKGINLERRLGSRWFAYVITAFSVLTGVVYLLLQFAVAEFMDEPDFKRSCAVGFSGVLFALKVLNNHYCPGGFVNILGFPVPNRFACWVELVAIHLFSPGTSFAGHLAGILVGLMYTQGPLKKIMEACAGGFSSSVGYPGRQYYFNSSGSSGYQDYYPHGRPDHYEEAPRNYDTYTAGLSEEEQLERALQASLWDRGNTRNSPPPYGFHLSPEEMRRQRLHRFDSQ

[5] = Michaelis-Menten, 1.5 μM RHBDL4, 37 °C, 2 h, pH 8.0, 150 mM NaCl, 0.1% DDM

Q: `Cl.NCCc1ccc(S(=O)(=O)F)cc1` [4-(2-aminoethyl) benzenesulfonyl fluoride hydrochloride] was tested. Which “inhibition of RHBDL4 proteolytic activity” value (recombinant human RHBDL4 [1]) did it give?
A: weak inhibition at all concentrations tested

Q: For `CC(=O)N[C@H](C(=O)N[C@@H](CCCNC(=N)N)C(=O)NC(Cc1c[nH]cn1)C(=O)N[C@@H](C)C(=O)C(=O)N[C@H](COCc1ccccc1)Cc1ccccc1)C(C)C` (stereo partly shown) [compound 1b], which “competition with TAMRA-FP probe (fluorescent signal)” value [2] is on record?
A: significant reduction of fluorescent signal

Q: With `CC(=O)N1CCC[C@H]1C(=O)NCC(=O)N[C@@H](Cc1ccccc1)C(=O)N[C@@H](CO)C(=O)N[C@@H](C)C(=O)C(=O)NCCCCc1ccccc1` [compound 2] (Ac-PGFS[X1]-{NH(4-phenylbutyl)}) as the molecule, how does the IC50 (recombinant human RHBDL4 [1]; inhibitor pre-incubated with RHBDL4 for 1 h, then reacted with IQ6 for 2 h, n = 3, average ± S.E.M.) read?
A: 3.4 ± 1.2 µM

Q: “Ac-QMESA-4mc [KSp207, TMED7-derived fluorescent substrate Ac-QMESA-4mc]” was tested. Which “cleavage rate/efficiency relative to other substrates” value (recombinant human RHBDL4 [3]; FRET-based assay) did it give?
A: higher enzymatic cleavage efficiency than IQ6

Q: What about the kcat (recombinant human RHBDL4 [3]; [5]) of the same molecule?
A: 0.003069 ± 0.00022 s⁻¹

Q: And the “catalytic rate (cleavage rate)” value (recombinant human RHBDL4 [3]; approximate, discussion)?
A: ~11 h⁻¹

Q: How did the “cleavage by inactive RHBDL4-S144A (increase in fluorescence / activity)” value (RHBDL4-S144A) turn out when “mca-FVTKGK(dnp) [IQ41, fluorescent internally quenched substrate mca-FVTKGK(dnp)]” was run?
A: negligible increase in fluorescence

Q: And the kcat (recombinant human RHBDL4 [3]; 37 °C, pH 8.0)?
A: 0.000669 ± 0.00017 s⁻¹

Q: And the kcat (recombinant human RHBDL4 [3]; [5])?
A: 0.000669 ± 0.00017 s⁻¹

Q: And the “pH of highest RHBDL4 protease activity” value (recombinant human RHBDL4 [3])?
A: 7

Q: And the “salt concentration range with satisfactory activity” value (recombinant human RHBDL4 [3])?
A: 100 to 300 mM

Q: For `O=c1oc(Cl)c(Cl)c2ccccc12` [3,4-dichloroisocoumarin], which “inhibition of RHBDL4 proteolytic activity” value (recombinant human RHBDL4 [1]) is on record?
A: inhibited the RHBDL4 proteolytic activity only at higher concentrations (100 μM)

Q: With “compound 1a (peptidyl α-ketoamide, Ac-VRHA-CONH-CH(Bn)-CH2OBn) (peptide)” as the molecule, how does the IC50 of inhibition of RHBDL4 proteolysis of the fluorescent substrate IQ6 (in vitro FRET-based activity assay; 1 h pre-incubation, 2 h reaction) [4] read?
A: 2.31 µM

Q: For `CC(=O)N[C@H](C(=O)N[C@@H](CCCNC(=N)N)C(=O)NC(Cc1c[nH]cn1)C(=O)N[C@@H](C)C(=O)C(=O)N[C@H](COCc1ccccc1)Cc1ccccc1)C(C)C` (stereo partly shown) [compound 1a], which “competition with TAMRA-FP probe (fluorescent signal)” value [2] is on record?
A: significant reduction of fluorescent signal

Q: What does the source list for “mca-FLVRGK(dnp) [IQ46, fluorescent internally quenched substrate mca-FLVRGK(dnp)]”?
A: cleavage by inactive RHBDL4-S144A (increase in fluorescence / activity) (RHBDL4-S144A): negligible increase in fluorescence; kcat (recombinant human RHBDL4 [3]; 37 °C, pH 8.0): 0.00101 ± 0.00022 s⁻¹; kcat (recombinant human RHBDL4 [3]; [5]): 0.00101 ± 2.2e-05 s⁻¹; pH of highest RHBDL4 protease activity (recombinant human RHBDL4 [3]): 8; salt concentration range with satisfactory activity (recombinant human RHBDL4 [3]): 100 to 300 mM

Q: How did the IC50 of inhibition of RHBDL4 proteolysis of the fluorescent substrate IQ6 (in vitro FRET-based activity assay; 1 h pre-incubation, 2 h reaction) [4] turn out when “compound 1b (peptidyl α-ketoamide, Ac-VRHA-CONH-CH(Bn)-CH2OBn) (peptide)” was run?
A: 6.1 µM

Q: With `Cc1ccc(S(=O)(=O)N[C@@H](Cc2ccccc2)C(=O)CCl)cc1` [N-p-tosyl-L-phenylalanine chloromethyl ketone] as the molecule, how does the “inhibition of RHBDL4 proteolytic activity” value (recombinant human RHBDL4 [1]) read?
A: weak inhibition at all concentrations tested

B1: compound 2 (IQ6-derived peptidyl α-ketoamide, Ac-PGFSA-CONH-(CH2)4-Ph) (peptide)
peptide: Ac-PGFSA-{α‑ketoamide CONH‑(CH2)4‑Ph}
Q: How did the IC50 of inhibition of RHBDL4 activity (in vitro FRET-based activity assay) [4] turn out when B1 was run?
A: 3.4 µM

— paper PMC11929074, “An in vitro platform for the enzymatic characterization of the rhomboid protease RHBDL4” (The Journal of Biological Chemistry, 2025)
